Measured values taken from ChEMBL document CHEMBL1141775, “Friedolanostanes and lanostanes from the leaves of Garcinia hombroniana” (2005).

System: Staphylococcus aureus
Experiment: Antibacterial activity against methicillin-resistant Staphylococcus aureus
Assay type: functional

## COC(=O)[C@H](C)CC(=O)C[C@@H](C)C1=CC[C@@]2(C)[C@@H]3CC[C@H]4C(C)(C)[C@@H](O)CC[C@]4(C)C3=CC[C@]12C
  MIC: > 128 µg/mL

## COC(=O)/C(C)=C/[C@H](O)C[C@@H](C)[C@]1(C)CC=C2[C@@H]3CC[C@H]4C(C)(C)[C@H](O)CC[C@]4(C)[C@@]3(O)CC[C@]21C [GARCIHOMBRONANE B]
  MIC: > 128 µg/mL

## CC(C)=C/C=C\[C@@H](C)[C@]1(C)CC=C2[C@@H]3CC[C@H]4C(C)(C)[C@H](O)CC[C@]4(C)[C@@]3(O)CC[C@]21C [GARCIHOMBRONANE F]
  MIC: > 128 µg/mL

## C/C(=C\C=C/[C@@H](C)[C@]1(C)CC[C@]2(C)C1=CC[C@@]1(O)[C@H]2CC[C@H]2C(C)(C)[C@H](O)CC[C@@]21C)C(=O)O [GARCIHOMBRONANE G]
  MIC: > 128 µg/mL

## C/C(=C\CC[C@@H](C)[C@]1(C)CC[C@]2(C)C1=CC[C@@]1(O)[C@H]2CC[C@H]2C(C)(C)[C@H](O)CC[C@@]21C)C(=O)O [GARCIHOMBRONANE H]
  MIC: > 128 µg/mL

## C/C(=C\CC[C@@H](C)[C@]1(C)CC[C@]2(C)C1=CC[C@@]1(O)[C@H]2CC[C@H]2C(C)(C)[C@@H](O)CC[C@@]21C)C(=O)O [GARCIHOMBRONANE I]
  MIC: > 128 µg/mL

## COC(=O)[C@H](C)CC(=O)C[C@@H](C)C1=CC[C@@]2(C)[C@@H]3CC[C@H]4C(C)(C)[C@H](O)CC[C@]4(C)C3=CC[C@]12C [GARCIHOMBRONANE J]
  MIC: > 128 µg/mL

## COC(=O)/C(C)=C/[C@H](O)C[C@@H](C)[C@]1(C)CC=C2C3=C(CC[C@]21C)[C@@]1(C)CC[C@@H](O)C(C)(C)[C@@H]1CC3 [GARCIHOMBRONANES C]
  MIC: > 128 µg/mL

## C[C@H](CC(=O)C[C@@H](C)C1=CC[C@@]2(C)[C@@H]3CC[C@H]4C(C)(C)[C@@H](O)CC[C@]4(C)C3=CC[C@]12C)C(=O)O [GARCIHOMBRONANES D]
  MIC: > 128 µg/mL

## C[C@H](CC(=O)C[C@@H](C)C1=CC[C@@]2(C)[C@@H]3CC[C@H]4C(C)(C)[C@H](O)CC[C@]4(C)C3=CC[C@]12C)C(=O)O [GARCIHOMBRONANES E]
  MIC: > 128 µg/mL
